Experimental data from PubChem BioAssay AID1963980 (Molecular Pharmacology Branch, DTP, NCI, 2024).

System: 475296-252-R-J1-PDC spheroid viability
Assay: Anticancer human tumor 475296-252-R-J1-PDC patient-derived rectal carcinoma cell line growth inhibition [PI3K]
Conditions: second compound 0.0316 µM; first compound 1 µM; active compounds read low; spheroids with HUVEC and MSC
Procedure, shortened: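 We assembled tumor spheroids that included a stromal compartment of HUVEC and MSCs, then exposed them to targeted agents alone and together with PI3K pathway inhibitors. Concentration series descended by half-log from clinically achievable Cmax levels. Viability served as the endpoint.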
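Further: spheroids exposed to agents for seven days before readout.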

Row | SMILES | viability, T/C [%]
1 | C#Cc1c(F)ccc2cc(O)cc(-c3ncc4c(N5CC6CCC(C5)N6)nc(OCC56CCCN5CC(F)C6)nc4c3F)c12 (stereo unspecified) + CC(Nc1ccc2c(c1)OCCn1cc(N3C(=O)OCC3C(F)F)nc1-2)C(N)=O | 73.8
2 | CC(Cn1ccc(-c2ccc(C#N)c(Cl)c2)n1)NC(=O)c1cc(C(C)O)[nH]n1 (stereo unspecified) + CC(Nc1ccc2c(c1)OCCn1cc(N3C(=O)OCC3C(F)F)nc1-2)C(N)=O | 90.9
3 | CC1(C)CCC(Nc2ncc(C(F)(F)F)c(-c3c[nH]c4c(P(C)(C)=O)c(C#N)ccc34)n2)CN1 (stereo unspecified) + CC(Nc1ccc2c(c1)OCCn1cc(N3C(=O)OCC3C(F)F)nc1-2)C(N)=O | 136

Same assay, conditions: second compound 0.0316 µM; first compound 3.16 µM; active compounds read low; spheroids with HUVEC and MSC

Row | SMILES | viability, T/C [%]
4 | C#Cc1c(F)ccc2cc(O)cc(-c3ncc4c(N5CC6CCC(C5)N6)nc(OCC56CCCN5CC(F)C6)nc4c3F)c12 (stereo unspecified) + CC(Nc1ccc2c(c1)OCCn1cc(N3C(=O)OCC3C(F)F)nc1-2)C(N)=O | 73.3
5 | CC(Cn1ccc(-c2ccc(C#N)c(Cl)c2)n1)NC(=O)c1cc(C(C)O)[nH]n1 (stereo unspecified) + CC(Nc1ccc2c(c1)OCCn1cc(N3C(=O)OCC3C(F)F)nc1-2)C(N)=O | 97.5
6 | CC1(C)CCC(Nc2ncc(C(F)(F)F)c(-c3c[nH]c4c(P(C)(C)=O)c(C#N)ccc34)n2)CN1 (stereo unspecified) + CC(Nc1ccc2c(c1)OCCn1cc(N3C(=O)OCC3C(F)F)nc1-2)C(N)=O | 187

Same assay, conditions: second compound 0.0316 µM; first compound 10 µM; active compounds read low; spheroids with HUVEC and MSC

Row | SMILES | viability, T/C [%]
7 | C#Cc1c(F)ccc2cc(O)cc(-c3ncc4c(N5CC6CCC(C5)N6)nc(OCC56CCCN5CC(F)C6)nc4c3F)c12 (stereo unspecified) + CC(Nc1ccc2c(c1)OCCn1cc(N3C(=O)OCC3C(F)F)nc1-2)C(N)=O | 59.2
8 | CC(Cn1ccc(-c2ccc(C#N)c(Cl)c2)n1)NC(=O)c1cc(C(C)O)[nH]n1 (stereo unspecified) + CC(Nc1ccc2c(c1)OCCn1cc(N3C(=O)OCC3C(F)F)nc1-2)C(N)=O | 103
9 | CC1(C)CCC(Nc2ncc(C(F)(F)F)c(-c3c[nH]c4c(P(C)(C)=O)c(C#N)ccc34)n2)CN1 (stereo unspecified) + CC(Nc1ccc2c(c1)OCCn1cc(N3C(=O)OCC3C(F)F)nc1-2)C(N)=O | 77.1

Same assay, conditions: second compound 0.1 µM; first compound 0.0316 µM; active compounds read low; spheroids with HUVEC and MSC

Row | SMILES | viability, T/C [%]
10 | C#Cc1c(F)ccc2cc(O)cc(-c3ncc4c(N5CC6CCC(C5)N6)nc(OCC56CCCN5CC(F)C6)nc4c3F)c12 (stereo unspecified) + CC(Nc1ccc2c(c1)OCCn1cc(N3C(=O)OCC3C(F)F)nc1-2)C(N)=O | 89
11 | CC(Cn1ccc(-c2ccc(C#N)c(Cl)c2)n1)NC(=O)c1cc(C(C)O)[nH]n1 (stereo unspecified) + CC(Nc1ccc2c(c1)OCCn1cc(N3C(=O)OCC3C(F)F)nc1-2)C(N)=O | 84.6
12 | CC1(C)CCC(Nc2ncc(C(F)(F)F)c(-c3c[nH]c4c(P(C)(C)=O)c(C#N)ccc34)n2)CN1 (stereo unspecified) + CC(Nc1ccc2c(c1)OCCn1cc(N3C(=O)OCC3C(F)F)nc1-2)C(N)=O | 96.6

Same assay, conditions: second compound 0.1 µM; first compound 0.1 µM; active compounds read low; spheroids with HUVEC and MSC

Row | SMILES | viability, T/C [%]
13 | C#Cc1c(F)ccc2cc(O)cc(-c3ncc4c(N5CC6CCC(C5)N6)nc(OCC56CCCN5CC(F)C6)nc4c3F)c12 (stereo unspecified) + CC(Nc1ccc2c(c1)OCCn1cc(N3C(=O)OCC3C(F)F)nc1-2)C(N)=O | 94.6
14 | CC(Cn1ccc(-c2ccc(C#N)c(Cl)c2)n1)NC(=O)c1cc(C(C)O)[nH]n1 (stereo unspecified) + CC(Nc1ccc2c(c1)OCCn1cc(N3C(=O)OCC3C(F)F)nc1-2)C(N)=O | 93.4
15 | CC1(C)CCC(Nc2ncc(C(F)(F)F)c(-c3c[nH]c4c(P(C)(C)=O)c(C#N)ccc34)n2)CN1 (stereo unspecified) + CC(Nc1ccc2c(c1)OCCn1cc(N3C(=O)OCC3C(F)F)nc1-2)C(N)=O | 103

Same assay, conditions: second compound 0.1 µM; first compound 0.316 µM; active compounds read low; spheroids with HUVEC and MSC

Row | SMILES | viability, T/C [%]
16 | C#Cc1c(F)ccc2cc(O)cc(-c3ncc4c(N5CC6CCC(C5)N6)nc(OCC56CCCN5CC(F)C6)nc4c3F)c12 (stereo unspecified) + CC(Nc1ccc2c(c1)OCCn1cc(N3C(=O)OCC3C(F)F)nc1-2)C(N)=O | 74.3
17 | CC(Cn1ccc(-c2ccc(C#N)c(Cl)c2)n1)NC(=O)c1cc(C(C)O)[nH]n1 (stereo unspecified) + CC(Nc1ccc2c(c1)OCCn1cc(N3C(=O)OCC3C(F)F)nc1-2)C(N)=O | 101
18 | CC1(C)CCC(Nc2ncc(C(F)(F)F)c(-c3c[nH]c4c(P(C)(C)=O)c(C#N)ccc34)n2)CN1 (stereo unspecified) + CC(Nc1ccc2c(c1)OCCn1cc(N3C(=O)OCC3C(F)F)nc1-2)C(N)=O | 106

Same assay, conditions: second compound 0.1 µM; first compound 1 µM; active compounds read low; spheroids with HUVEC and MSC

Row | SMILES | viability, T/C [%]
19 | C#Cc1c(F)ccc2cc(O)cc(-c3ncc4c(N5CC6CCC(C5)N6)nc(OCC56CCCN5CC(F)C6)nc4c3F)c12 (stereo unspecified) + CC(Nc1ccc2c(c1)OCCn1cc(N3C(=O)OCC3C(F)F)nc1-2)C(N)=O | 72.1
20 | CC(Cn1ccc(-c2ccc(C#N)c(Cl)c2)n1)NC(=O)c1cc(C(C)O)[nH]n1 (stereo unspecified) + CC(Nc1ccc2c(c1)OCCn1cc(N3C(=O)OCC3C(F)F)nc1-2)C(N)=O | 90.9
21 | CC1(C)CCC(Nc2ncc(C(F)(F)F)c(-c3c[nH]c4c(P(C)(C)=O)c(C#N)ccc34)n2)CN1 (stereo unspecified) + CC(Nc1ccc2c(c1)OCCn1cc(N3C(=O)OCC3C(F)F)nc1-2)C(N)=O | 136

Same assay, conditions: second compound 0.1 µM; first compound 3.16 µM; active compounds read low; spheroids with HUVEC and MSC

Row | SMILES | viability, T/C [%]
22 | C#Cc1c(F)ccc2cc(O)cc(-c3ncc4c(N5CC6CCC(C5)N6)nc(OCC56CCCN5CC(F)C6)nc4c3F)c12 (stereo unspecified) + CC(Nc1ccc2c(c1)OCCn1cc(N3C(=O)OCC3C(F)F)nc1-2)C(N)=O | 61.1
23 | CC(Cn1ccc(-c2ccc(C#N)c(Cl)c2)n1)NC(=O)c1cc(C(C)O)[nH]n1 (stereo unspecified) + CC(Nc1ccc2c(c1)OCCn1cc(N3C(=O)OCC3C(F)F)nc1-2)C(N)=O | 95.3
24 | CC1(C)CCC(Nc2ncc(C(F)(F)F)c(-c3c[nH]c4c(P(C)(C)=O)c(C#N)ccc34)n2)CN1 (stereo unspecified) + CC(Nc1ccc2c(c1)OCCn1cc(N3C(=O)OCC3C(F)F)nc1-2)C(N)=O | 170

Same assay, conditions: second compound 0.1 µM; first compound 10 µM; active compounds read low; spheroids with HUVEC and MSC

Row | SMILES | viability, T/C [%]
25 | C#Cc1c(F)ccc2cc(O)cc(-c3ncc4c(N5CC6CCC(C5)N6)nc(OCC56CCCN5CC(F)C6)nc4c3F)c12 (stereo unspecified) + CC(Nc1ccc2c(c1)OCCn1cc(N3C(=O)OCC3C(F)F)nc1-2)C(N)=O | 49
26 | CC(Cn1ccc(-c2ccc(C#N)c(Cl)c2)n1)NC(=O)c1cc(C(C)O)[nH]n1 (stereo unspecified) + CC(Nc1ccc2c(c1)OCCn1cc(N3C(=O)OCC3C(F)F)nc1-2)C(N)=O | 98.4
27 | CC1(C)CCC(Nc2ncc(C(F)(F)F)c(-c3c[nH]c4c(P(C)(C)=O)c(C#N)ccc34)n2)CN1 (stereo unspecified) + CC(Nc1ccc2c(c1)OCCn1cc(N3C(=O)OCC3C(F)F)nc1-2)C(N)=O | 72.9

Same assay, conditions: second compound 0.316 µM; first compound 0.0316 µM; active compounds read low; spheroids with HUVEC and MSC

Row | SMILES | viability, T/C [%]
28 | C#Cc1c(F)ccc2cc(O)cc(-c3ncc4c(N5CC6CCC(C5)N6)nc(OCC56CCCN5CC(F)C6)nc4c3F)c12 (stereo unspecified) + CC(Nc1ccc2c(c1)OCCn1cc(N3C(=O)OCC3C(F)F)nc1-2)C(N)=O | 78.2
29 | CC(Cn1ccc(-c2ccc(C#N)c(Cl)c2)n1)NC(=O)c1cc(C(C)O)[nH]n1 (stereo unspecified) + CC(Nc1ccc2c(c1)OCCn1cc(N3C(=O)OCC3C(F)F)nc1-2)C(N)=O | 84
30 | CC1(C)CCC(Nc2ncc(C(F)(F)F)c(-c3c[nH]c4c(P(C)(C)=O)c(C#N)ccc34)n2)CN1 (stereo unspecified) + CC(Nc1ccc2c(c1)OCCn1cc(N3C(=O)OCC3C(F)F)nc1-2)C(N)=O | 82.9

Same assay, conditions: second compound 0.316 µM; first compound 0.1 µM; active compounds read low; spheroids with HUVEC and MSC

Row | SMILES | viability, T/C [%]
31 | C#Cc1c(F)ccc2cc(O)cc(-c3ncc4c(N5CC6CCC(C5)N6)nc(OCC56CCCN5CC(F)C6)nc4c3F)c12 (stereo unspecified) + CC(Nc1ccc2c(c1)OCCn1cc(N3C(=O)OCC3C(F)F)nc1-2)C(N)=O | 87.7
